What was measured:
TYK2(h) = TYK2(h) (Homo sapiens (Human), UniProt P29597); test: TYK2 kinase activity test in vitro ([γ-33P]-ATP, Eurofins); assay type: biochemical
Protocol: (§1) Recombinant human JAK1, JAK2, JAK3 and Tyk2 […], main instruments and reagents are all provided by the British company Eurofins
(§2) JAK2, JAK3 and TYK2 dilution: 20 mM 3-(N-morpholine)propanesulfonic acid (MOPS), 1 mM EDTA, 0.01% Brij-35.5% glycerol, 0.1% β-mercaptoethanol, 1 mg/mL BSA; JAK1 dilution: 20 mM TRIS, 0.2 mM EDTA, 0.1% β-mercaptoethanol, 0.01% Brij-35.5% glycerol. All compounds were prepared as 100% DMSO solutions and brought to 50 times the final assay concentration. The test compound was subjected to 3-fold serial concentration dilution with a final concentration from 10 μM to 0.001 μM of a total of 9 concentrations. The content of DMSO in the detection reaction was 2%. A working stock solution of this compound was added to the assay well as the first component of the reaction, and then the remaining components were added according to the protocol detailed in the following determination.
(§3) TYK2(h) was incubated with 8 mM MOPS pH 7.0, 0.2 mM EDTA, 250 μM GGMEDIYFEFMGGKKK (SEQ ID NO: 4), 10 mM magnesium acetate, and [γ-^33P]-ATP (activity and concentration were determined as required). The reaction was started by adding the Mg/ATP mixture, and after incubation at room temperature for 40 min, the reaction was terminated by adding 0.5% phosphoric acid. Then 10 μL of the reaction product was spotted on a P30 filter pad which was washed three times with 0.425% phosphoric acid and once with methanol within 4 min, dried, and subjected to scintillation counting.
(§4) IC50 results were analyzed by XLFIT5 (205 formula) of IDBS Company.

JAK1(h) = JAK1(h) (Homo sapiens (Human), UniProt P23458); test: JAK1 kinase activity test in vitro ([γ-33P]-ATP, Eurofins); assay type: biochemical
Protocol: as §1, §2
JAK1(h) was incubated with 20 mM Tris/HCl pH 7.5, 0.2 mM EDTA, 500 μM MGEEPLYWSFPAKKK (SEQ ID NO: 1), 10 mM magnesium acetate and [γ-^33P]-ATP (activity and concentration were determined as required). The reaction was started by adding the Mg/ATP mixture, and after incubation at room temperature for 40 min, the reaction was terminated by adding 0.5% phosphoric acid. Then 10 μL of the reaction product was spotted on a P30 filter pad which was washed three times with 0.425% phosphoric acid and once with methanol within 4 min, dried, and subjected to scintillation counting.
as §4

[1] = test system: IL-23 induced psoriasis-like skin lesions in mice; test: In vivo drug efficacy test in mouse psoriasis model (IL-23 induced auricular epidermal dysplasia); design: species or system C57BL/6 mice; Ear comprehensive score: scale not given here; conditions: for Ear weight: end of experiment (Day 10), 8 mm punch
From the text: Purpose: The purpose of this experiment is to evaluate the preventive and therapeutic effect of the test substance on IL-23 induced psoriasis-like skin lesions in mice through the psoriasis-like skin lesions model induced by intradermal injection of IL-23 into the mouse auricle.
Method: After the adaptation period of experimental animals, 50 mice were divided into 5 groups according to the Excel completely random grouping method, with 10 mice in each group, as follows: vehicle (0.5% MC & 0.5% Tween 80) control group, modeling group, compound 1 (10, 20, 50 mg/kg) group. Except for the vehicle control group, the animals in the other groups were intradermally injected with IL-23 (3 μg/10 μL/mouse/day, QD) in their right ears for 8 consecutive days (D1-D8). The animals in the control group were intradermally injected with an equal volume of physiological saline solution (10 μL/mouse/day, QD) in the right ear for 8 consecutive days (D1-D8). For the modeling group, the vehicle and test drug were administered orally at the same time, twice a day (Bid), with an interval of 6 h, for 8 consecutive days (D1-D8). During the dosing period, the animal body weight was monitored every two days. On D1, D3, D5, D7 (all before IL-23 injection), and D9, the thickness of the mouse right ear was measured and the auricle appearance was observed and scored. At the end of the experiment (Day 10), the ear on the side where the model was created was taken, and the ear was punched along the edge of the auricle with an 8 mm punch to obtain a piece of ear which was weighed. The piece of ear from the right ear was fixed with formalin and then subjected to histopathological examination (H&E) staining.

[2] = Pharmacokinetic (PK) test in mice; assay type: in vivo; conditions: mouse, plasma, male balb/c mice, intravenous 1 mg/kg, gavage 3 mg/kg
Protocol: The clear solution obtained after dissolving the test compound was administered to male mice (balb/c) via tail vein injection and gavage respectively. After administration of the test compound, blood samples were collected from mandibular veins for the intravenous injection group (1 mg/kg) at 0.083, 0.25, 0.5, 1, 2, 4, 8 and 24 h and for the gavage group (3 mg/kg) was at 0.25, 0.5, 1, 2, 4, 6, 8 and 24 h, respectively, and centrifuged to obtain plasma. The LC-MS/MS method was used to determine the blood drug concentration, and the WinNonlin™ Version 6.3 pharmacokinetic software was used to calculate the relevant pharmacokinetic parameters by the non-compartmental model linear logarithmic trapezoidal method.

JAK2(h) = JAK2(h) (Homo sapiens (Human), UniProt O60674); test: JAK2 kinase activity test in vitro ([γ-33P]-ATP, Eurofins); assay type: biochemical
Protocol: as §1, §2
as §3, with “JAK2(h)” for “TYK2(h)”, “100” for “250”, “GGMEDIYFEFMGGKKK” left out, “2),” for “4),”
as §4

JAK3(h) = JAK3(h) (Homo sapiens (Human), UniProt P52333); test: JAK3 kinase activity test in vitro ([γ-33P]-ATP, Eurofins); assay type: biochemical
Protocol: as §1, §2
as §3, with “JAK3(h)” for “TYK2(h)”, “500” for “250”, “GGEEEEYFELVKKKK” for “GGMEDIYFEFMGGKKK”, “3),” for “4),”
as §4

[3] = 10 mg/kg oral gavage Bid, day 1
[4] = 10 mg/kg oral gavage Bid, day 3
[5] = 10 mg/kg oral gavage Bid, day 5
[6] = 10 mg/kg oral gavage Bid, day 7
[7] = 10 mg/kg oral gavage Bid, day 9
[8] = 20 mg/kg oral gavage Bid, day 1
[9] = 20 mg/kg oral gavage Bid, day 3
[10] = 20 mg/kg oral gavage Bid, day 5
[11] = 20 mg/kg oral gavage Bid, day 7
[12] = 20 mg/kg oral gavage Bid, day 9
[13] = 50 mg/kg oral gavage Bid, day 1
[14] = 50 mg/kg oral gavage Bid, day 3
[15] = 50 mg/kg oral gavage Bid, day 5
[16] = 50 mg/kg oral gavage Bid, day 7
[17] = 50 mg/kg oral gavage Bid, day 9

Chain of JAK2(h) (O60674 whole entry): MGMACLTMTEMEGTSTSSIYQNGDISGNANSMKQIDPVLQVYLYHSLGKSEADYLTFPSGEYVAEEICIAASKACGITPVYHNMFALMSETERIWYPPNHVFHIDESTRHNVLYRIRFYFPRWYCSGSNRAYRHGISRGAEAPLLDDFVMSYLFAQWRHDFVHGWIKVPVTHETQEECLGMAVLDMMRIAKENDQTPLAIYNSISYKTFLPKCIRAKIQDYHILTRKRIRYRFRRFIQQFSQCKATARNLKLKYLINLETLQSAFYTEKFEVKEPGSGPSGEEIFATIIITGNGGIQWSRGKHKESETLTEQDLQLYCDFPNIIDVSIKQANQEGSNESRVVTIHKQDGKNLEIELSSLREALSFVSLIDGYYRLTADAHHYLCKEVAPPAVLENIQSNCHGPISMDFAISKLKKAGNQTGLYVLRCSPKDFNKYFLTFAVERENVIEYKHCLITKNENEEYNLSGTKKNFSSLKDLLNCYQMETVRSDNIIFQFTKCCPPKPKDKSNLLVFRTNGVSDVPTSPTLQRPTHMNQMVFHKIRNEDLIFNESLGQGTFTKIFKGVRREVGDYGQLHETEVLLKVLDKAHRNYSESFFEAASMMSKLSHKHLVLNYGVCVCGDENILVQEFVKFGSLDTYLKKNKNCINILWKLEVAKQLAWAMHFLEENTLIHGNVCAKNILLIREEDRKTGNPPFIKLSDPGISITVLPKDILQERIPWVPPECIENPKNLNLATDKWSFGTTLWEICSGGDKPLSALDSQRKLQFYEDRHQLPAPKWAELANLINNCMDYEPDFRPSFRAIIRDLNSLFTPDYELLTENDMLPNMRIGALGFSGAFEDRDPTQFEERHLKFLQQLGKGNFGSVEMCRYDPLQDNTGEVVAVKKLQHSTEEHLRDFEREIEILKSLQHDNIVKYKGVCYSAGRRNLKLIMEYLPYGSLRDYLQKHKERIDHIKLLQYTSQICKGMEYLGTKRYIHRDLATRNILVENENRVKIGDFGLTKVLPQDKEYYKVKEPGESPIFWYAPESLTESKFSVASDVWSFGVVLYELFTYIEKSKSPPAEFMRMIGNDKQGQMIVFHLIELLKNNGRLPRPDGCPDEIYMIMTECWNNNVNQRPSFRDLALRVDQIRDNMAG
Chain of TYK2(h) (P29597 whole entry): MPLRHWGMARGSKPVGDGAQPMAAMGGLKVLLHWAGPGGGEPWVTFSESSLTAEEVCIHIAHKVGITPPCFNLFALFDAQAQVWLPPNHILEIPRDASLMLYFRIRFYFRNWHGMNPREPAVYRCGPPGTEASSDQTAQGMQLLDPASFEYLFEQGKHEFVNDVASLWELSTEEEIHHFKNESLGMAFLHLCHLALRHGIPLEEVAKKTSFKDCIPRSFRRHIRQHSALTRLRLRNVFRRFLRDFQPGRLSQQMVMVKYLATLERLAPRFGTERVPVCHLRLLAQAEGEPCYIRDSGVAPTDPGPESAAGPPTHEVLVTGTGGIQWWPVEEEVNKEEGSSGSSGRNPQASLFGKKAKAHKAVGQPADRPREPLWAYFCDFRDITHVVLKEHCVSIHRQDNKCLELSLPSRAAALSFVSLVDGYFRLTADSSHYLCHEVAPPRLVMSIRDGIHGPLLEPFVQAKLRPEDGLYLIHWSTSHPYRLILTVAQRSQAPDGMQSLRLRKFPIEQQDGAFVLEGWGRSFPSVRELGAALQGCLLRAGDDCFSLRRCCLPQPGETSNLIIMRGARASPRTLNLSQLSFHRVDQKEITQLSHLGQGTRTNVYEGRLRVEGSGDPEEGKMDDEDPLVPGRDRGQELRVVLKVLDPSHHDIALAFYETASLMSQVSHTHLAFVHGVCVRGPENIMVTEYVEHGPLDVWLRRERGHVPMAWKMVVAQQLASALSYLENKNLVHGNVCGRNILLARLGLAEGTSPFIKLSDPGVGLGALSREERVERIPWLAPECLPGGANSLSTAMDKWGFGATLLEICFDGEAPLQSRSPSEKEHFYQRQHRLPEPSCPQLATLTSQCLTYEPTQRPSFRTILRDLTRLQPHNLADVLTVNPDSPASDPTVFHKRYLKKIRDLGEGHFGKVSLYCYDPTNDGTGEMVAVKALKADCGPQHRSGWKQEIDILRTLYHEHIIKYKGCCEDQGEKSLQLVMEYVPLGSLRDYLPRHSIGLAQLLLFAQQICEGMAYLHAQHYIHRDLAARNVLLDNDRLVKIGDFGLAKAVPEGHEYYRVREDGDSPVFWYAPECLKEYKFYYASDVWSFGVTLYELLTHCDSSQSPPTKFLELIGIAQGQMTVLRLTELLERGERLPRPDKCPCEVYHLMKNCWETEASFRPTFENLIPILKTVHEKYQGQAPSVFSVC
Chain of JAK1(h) (P23458 whole entry): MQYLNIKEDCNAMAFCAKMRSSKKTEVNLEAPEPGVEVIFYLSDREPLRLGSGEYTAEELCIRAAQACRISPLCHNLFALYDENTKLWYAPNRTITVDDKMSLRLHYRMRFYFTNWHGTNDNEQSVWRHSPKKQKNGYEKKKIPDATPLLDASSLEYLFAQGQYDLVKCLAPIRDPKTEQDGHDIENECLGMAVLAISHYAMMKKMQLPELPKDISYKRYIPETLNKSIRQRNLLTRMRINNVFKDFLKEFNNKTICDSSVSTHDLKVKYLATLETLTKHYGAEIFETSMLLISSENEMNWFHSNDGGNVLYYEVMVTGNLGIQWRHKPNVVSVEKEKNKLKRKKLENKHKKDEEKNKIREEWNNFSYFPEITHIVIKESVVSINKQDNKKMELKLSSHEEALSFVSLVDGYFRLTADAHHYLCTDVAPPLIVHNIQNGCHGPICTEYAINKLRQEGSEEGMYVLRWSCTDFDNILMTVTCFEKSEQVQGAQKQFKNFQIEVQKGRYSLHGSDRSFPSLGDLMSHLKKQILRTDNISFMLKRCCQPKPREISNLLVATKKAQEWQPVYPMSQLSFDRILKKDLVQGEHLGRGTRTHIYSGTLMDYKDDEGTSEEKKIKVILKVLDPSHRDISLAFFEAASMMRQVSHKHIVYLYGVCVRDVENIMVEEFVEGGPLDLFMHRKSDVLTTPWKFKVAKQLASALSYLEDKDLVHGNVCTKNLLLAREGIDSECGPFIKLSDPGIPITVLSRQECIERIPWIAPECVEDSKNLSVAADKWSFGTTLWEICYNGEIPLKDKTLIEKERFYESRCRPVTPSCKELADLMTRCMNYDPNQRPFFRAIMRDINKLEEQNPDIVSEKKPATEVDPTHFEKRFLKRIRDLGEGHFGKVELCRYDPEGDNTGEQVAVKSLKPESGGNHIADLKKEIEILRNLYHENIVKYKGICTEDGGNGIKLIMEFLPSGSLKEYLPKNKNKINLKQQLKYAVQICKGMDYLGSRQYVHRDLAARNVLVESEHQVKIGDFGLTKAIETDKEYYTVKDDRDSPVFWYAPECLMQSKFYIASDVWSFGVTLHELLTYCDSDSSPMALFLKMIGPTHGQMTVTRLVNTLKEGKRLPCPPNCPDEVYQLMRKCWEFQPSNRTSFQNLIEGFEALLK
Chain of JAK3(h) (P52333 whole entry): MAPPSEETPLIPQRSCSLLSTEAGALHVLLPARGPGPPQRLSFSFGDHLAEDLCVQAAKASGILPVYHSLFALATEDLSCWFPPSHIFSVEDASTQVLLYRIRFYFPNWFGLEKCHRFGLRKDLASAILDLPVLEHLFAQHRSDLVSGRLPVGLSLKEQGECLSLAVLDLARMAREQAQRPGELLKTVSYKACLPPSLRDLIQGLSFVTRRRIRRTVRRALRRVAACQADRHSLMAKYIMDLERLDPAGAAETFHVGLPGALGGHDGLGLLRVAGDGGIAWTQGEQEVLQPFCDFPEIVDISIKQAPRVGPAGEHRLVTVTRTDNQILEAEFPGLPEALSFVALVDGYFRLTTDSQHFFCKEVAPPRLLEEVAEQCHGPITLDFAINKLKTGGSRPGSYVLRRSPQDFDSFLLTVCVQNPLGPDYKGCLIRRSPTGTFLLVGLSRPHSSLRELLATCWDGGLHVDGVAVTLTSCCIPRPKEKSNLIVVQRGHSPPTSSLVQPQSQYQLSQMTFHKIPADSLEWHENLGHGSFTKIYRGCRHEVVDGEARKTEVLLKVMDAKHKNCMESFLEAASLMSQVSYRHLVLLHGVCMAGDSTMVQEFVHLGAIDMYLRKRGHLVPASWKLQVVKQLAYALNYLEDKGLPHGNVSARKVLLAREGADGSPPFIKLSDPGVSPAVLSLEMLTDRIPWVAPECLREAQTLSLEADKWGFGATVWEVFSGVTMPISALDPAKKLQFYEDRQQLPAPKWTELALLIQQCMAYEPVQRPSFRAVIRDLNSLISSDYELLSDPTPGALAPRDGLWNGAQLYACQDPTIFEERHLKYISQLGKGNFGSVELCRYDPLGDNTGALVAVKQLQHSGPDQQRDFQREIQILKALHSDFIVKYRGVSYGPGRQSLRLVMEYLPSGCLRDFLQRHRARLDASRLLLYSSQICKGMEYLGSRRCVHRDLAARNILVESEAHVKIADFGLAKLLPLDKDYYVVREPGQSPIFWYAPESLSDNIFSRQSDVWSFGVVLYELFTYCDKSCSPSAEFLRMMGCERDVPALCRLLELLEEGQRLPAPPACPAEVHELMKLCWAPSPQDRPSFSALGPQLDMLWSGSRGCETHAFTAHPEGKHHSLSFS

Cn1ccc(-c2cn3nccc3c(-c3cnn(C4(CC#N)CC5(CN(CC#N)C5)C4)c3)n2)n1 [Compound 6]
IC50 (TYK2(h)): 177 nM
IC50 (JAK1(h)): 3130 nM

Cn1cc(-c2cn3nccc3c(-c3cnn([C@]4(CC#N)CC5(C[C@H](C#N)C5)C4)c3)n2)cn1 (stereo partly drawn) [Compound 1]
Ear comprehensive score [1, 3]: 0.00 ± 0.00
Ear thickness (mm) [1, 3]: 0.189 ± 0.006 mm
Weight [1, 3]: 19.77 ± 0.59 g
Ear comprehensive score [1, 4]: 0.00 ± 0.00
Ear thickness (mm) [1, 4]: 0.287 ± 0.018 mm
Weight [1, 4]: 19.69 ± 0.57 g
Ear comprehensive score [1, 5]: 0.60 ± 0.52
Ear thickness (mm) [1, 5]: 0.311 ± 0.013 mm
Weight [1, 5]: 20.02 ± 0.77 g
Ear comprehensive score [1, 6]: 1.70 ± 1.06
Ear thickness (mm) [1, 6]: 0.373 ± 0.030 mm
Weight [1, 6]: 19.69 ± 0.63 g
Ear comprehensive score [1, 7]: 2.60 ± 1.43
Ear thickness (mm) [1, 7]: 0.430 ± 0.048 mm
Weight [1, 7]: 20.04 ± 0.72 g
Ear weight ([1]; 10 mg/kg oral gavage Bid): 19.16 ± 1.56 mg
Ear comprehensive score [1, 8]: 0.00 ± 0.00
Ear thickness (mm) [1, 8]: 0.190 ± 0.009 mm
Weight [1, 8]: 19.77 ± 0.54 g
Ear comprehensive score [1, 9]: 0.00 ± 0.00
Ear thickness (mm) [1, 9]: 0.289 ± 0.028 mm
Weight [1, 9]: 19.85 ± 0.78 g
Ear comprehensive score [1, 10]: 0.60 ± 0.70
Ear thickness (mm) [1, 10]: 0.306 ± 0.018 mm
Weight [1, 10]: 20.13 ± 0.78 g
Ear comprehensive score [1, 11]: 1.40 ± 0.52
Ear thickness (mm) [1, 11]: 0.350 ± 0.025 mm
Weight [1, 11]: 19.80 ± 0.92 g
Ear comprehensive score [1, 12]: 1.50 ± 0.71
Ear thickness (mm) [1, 12]: 0.381 ± 0.032 mm
Weight [1, 12]: 20.27 ± 0.90 g
Ear weight ([1]; 20 mg/kg oral gavage Bid): 18.76 ± 1.62 mg
Ear comprehensive score [1, 13]: 0.00 ± 0.00
Ear thickness (mm) [1, 13]: 0.193 ± 0.006 mm
Weight [1, 13]: 19.78 ± 0.53 g
Ear comprehensive score [1, 14]: 0.00 ± 0.00
Ear thickness (mm) [1, 14]: 0.279 ± 0.024 mm
Weight [1, 14]: 19.85 ± 0.68 g
Ear comprehensive score [1, 15]: 0.10 ± 0.32
Ear thickness (mm) [1, 15]: 0.289 ± 0.025 mm
Weight [1, 15]: 20.41 ± 0.70 g
Ear comprehensive score [1, 16]: 1.40 ± 0.70
Ear thickness (mm) [1, 16]: 0.338 ± 0.023 mm
Weight [1, 16]: 20.15 ± 0.56 g
Ear comprehensive score [1, 17]: 1.00 ± 0.47
Ear thickness (mm) [1, 17]: 0.352 ± 0.032 mm
Weight [1, 17]: 20.28 ± 0.76 g
Ear weight ([1]; 50 mg/kg oral gavage Bid): 17.63 ± 1.47 mg
bioavailability ([2]; oral): 88.7%
AUC(0-inf) [2]: 7.67 µM·h
clearance ([2]; read-out: Cl (clearance rate)): 15.6 mL/min/kg
Cmax ([2]; read-out: Cmax (peak concentration)): 3.04 µM
half-life ([2]; read-out: T1/2 (half-life) (converted)): 2.39 h
Vd ([2]; read-out: Vd (distribution volume)): 1.59 L/kg

Cn1cc(-c2cc(-c3cnn([C@]4(CC#N)CC5(C[C@H](C#N)C5)C4)c3)c3ccnn3c2)cn1 (stereo partly drawn) [Compound 16]
IC50 (JAK2(h)): 6 nM
IC50 (TYK2(h)): 2 nM
IC50 (JAK3(h)): 67 nM
IC50 (JAK1(h)): 42 nM

Cn1nc(-c2cn3nccc3c(-c3cnn([C@]4(CC#N)CC5(C[C@H](C#N)C5)C4)c3)n2)cc1N (stereo partly drawn) [Compound 14]
IC50 (JAK2(h)): 6 nM
IC50 (TYK2(h)): 0.8 nM
IC50 (JAK3(h)): 296 nM
IC50 (JAK1(h)): 51 nM

Cn1ccc(-c2cn3nccc3c(-c3cnn([C@]4(CC#N)CC5(C[C@H](C#N)C5)C4)c3)n2)n1 (stereo partly drawn) [Compound 4]
IC50 (JAK2(h)): 82 nM
IC50 (TYK2(h)): 20 nM
IC50 (JAK3(h)): ≥ 10000 nM
IC50 (JAK1(h)): 606 nM

Cn1ccc(-c2cn3nccc3c(-c3cnn(C4(CC#N)CC5(CCN(C#N)CC5)C4)c3)n2)n1 [Compound 9]
IC50 (JAK2(h)): 5.16 nM
IC50 (TYK2(h)): 2.81 nM
IC50 (JAK3(h)): 209 nM
IC50 (JAK1(h)): 128 nM

Cn1ccc(-c2cn3nccc3c(-c3cnn([C@]4(CC#N)CC5(C[C@@H](C#N)C5)C4)c3)n2)n1 (stereo partly drawn) [Compound 5]
IC50 (JAK2(h)): 40 nM
IC50 (TYK2(h)): 9 nM
IC50 (JAK3(h)): 2260 nM
IC50 (JAK1(h)): 78 nM

Cn1ccc(-c2cn3nccc3c(-c3cnn(C4(CC#N)CC5C(C#N)C5C4)c3)n2)n1 (stereo not drawn) [Compound 8]
IC50 (JAK2(h)): 1.13 nM
IC50 (TYK2(h)): 6.43 nM
IC50 (JAK3(h)): 22.8 nM
IC50 (JAK1(h)): 13.7 nM

N#CC[C@]1(n2cc(-c3nc(-c4cc(N)[nH]n4)cn4nccc34)cn2)CC2(C[C@@H](C#N)C2)C1 (stereo partly drawn) [Compound 21]
IC50 (JAK2(h)): 3 nM
IC50 (TYK2(h)): 0.7 nM
IC50 (JAK3(h)): 99 nM
IC50 (JAK1(h)): 5 nM

Cn1ccc(-c2cn3nccc3c(-c3cnn(C4(CC#N)CC5(CN(C#N)C5)C4)c3)n2)n1 [Compound 7]
IC50 (TYK2(h)): 228 nM
IC50 (JAK1(h)): 2910 nM

Cn1ccc(-c2cn3nccc3c(-c3cnn(C(CC#N)C45CC(C#N)(C4)C5)c3)n2)n1 (stereo not drawn) [Compound 3]
IC50 (JAK2(h)): 387 nM
IC50 (TYK2(h)): 177 nM
IC50 (JAK3(h)): 10000 nM
IC50 (JAK1(h)): 1170 nM
